From patent US9771372B2, “Compounds useful as S100-inhibitors” (Active Biotech AB, priority 2014, dated 2017) come the findings set out here.

One may read the IC50 as the midpoint of a concentration-inhibition curve.

The target of the assay is T1, interaction between biotinylated human S100A9 and human RAGE-Fc (Homo sapiens, UniProt P06702).
T1 construct: made in house; host or cells: E. coli BL21(DE3)/pET1120 (pLR757)
T1 sequence (P06702 1-114): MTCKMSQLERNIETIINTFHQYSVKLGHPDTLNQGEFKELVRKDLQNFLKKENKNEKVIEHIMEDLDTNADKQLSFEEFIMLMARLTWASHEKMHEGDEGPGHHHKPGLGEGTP
The assay is described as follows: AlphaScreen inhibition assay, Biot-hS100A9:hRAGE-Fc (S100A9-RAGE inhibition assay). The format is binding. To be noted: biot-hS100A9 and rhRAGE-Fc, Ca2+ and Zn2+ in buffer. An excerpt: FIG. 1 is a schematic representation of an assay of the inhibition of the interaction between biotinylated human S100A9 and human RAGE-Fc using a small molecule S100A9 binder.
Inhibition Assay, Biot-hS100A9:hRAGE-Fc
The AlphaScreen (Amplified Luminescent Proximity Homogeneous Assay) contains two types of beads, Alpha Donor beads and Acceptor beads (PerkinElmer). Upon laser excitation at 680 nm a photosensitizer in the Donor bead converts ambient oxygen to a more excited singlet state. The singlet oxygen molecule diffuses (maximum 200 nm) to react with a thioxene derivative in the Acceptor bead and generates a chemiluminescence reaction. Fluorophores in the Acceptor bead subsequently emit light at 520-620 nm which can be detected in the EnVision® Multilabel plate Reader (PerkinElmer). The beads are light sensitive and all work with the beads is performed under subdued light conditions or using green filters on light sources (Roscolux Chroma Green #389, Rosco).
In the AlphaScreen Inhibition Assay described here, protein A (Staphylococcus aureus) conjugated Acceptor beads are used together with streptavidin coated Donor beads (Perkin Elmer 6760617M). The Acceptor beads are pre-incubated with Fc-tagged recombinant human RAGE (rhRAGE-Fc) allowing binding of the rhRAGE-Fc to protein A on the beads. Biotinylated human S100A9 (biot-hS100A9) is pre-incubated with the low molecular test compounds. The pre-mixes are then added to the wells of a micro-plate and incubated allowing interaction between biot-hS100A9 and rhRAGE-Fc. Subsequent addition of streptavidin coated Donor beads causes binding of the streptavidin to the biotinylated hS100A9. After an additional incubation the signal is measured.
Without inhibitory compounds, the interaction of biot-hS100A9 to rhRAGE-Fc will bring the Acceptor and Donor beads in close proximity thus generating a high signal. With an inhibitor present the complex will not form resulting in a decreased signal.
The AlphaScreen assay method is used for screening of the inhibitory effect of different compound samples at fixed concentrations or for IC50 determination by varying the compound concentrations. Samples of test compounds and references are prepared from solutions in DMSO. Relevant reference inhibitors and DMSO are used as controls for defined inhibition and non-inhibition, respectively in the assay. The percent inhibition in assay for test compounds and references are calculated by comparing their obtained assay signals with the signal values for the control with only DMSO (no compound).
Assay concentration of biotinylated hS100A9 and rhRAGE-Fc are batch dependent, and are determined and defined by separate cross-titration experiments using this AlphaScreen inhibition method to verify the optimal setup regarding signal strength and achievement of a defined inhibition with relevant reference compounds. The Final assay concentrations of Acceptor and Donor beads are 20 μg/mL.
Assay buffer is prepared by adding CaCl2 and ZnCl2 to HBS-P and is used freshly prepared in the experiment.
Biotin-hS100A9 solution for the experiment is prepared by dilution of appropriate amount of stock solution biot-hS100A9 in assay buffer (with CaCl2 and ZnCl2) and incubation in room temperature for 30 minutes.
rhRAGE-Fc solution for the experiment is prepared by dilution appropriate amount of rhRAGE-Fc stock in assay buffer.
Protein A Acceptor beads are diluted in assay buffer and are added to an equal volume of the prepared diluted rhRAGE-Fc solution. The beads are light sensitive. The vial is covered with aluminum foil and incubated at room temperature in the dark until biot-hS100A9+compound incubation is finished (see below).
Streptavidin-coated Donor beads are diluted in assay buffer. The beads are very light sensitive. The vial is covered with aluminum foil and incubated at room temperature in the dark until use (see below).
Samples of test compounds, appropriate references and DMSO control are diluted in assay buffer. […]

`O=C(CCC1CCCC1)NC1(C(F)(F)F)C(=O)Nc2nc3c(-c4ccc([N+](=O)[O-])cc4)cccc3n21` (centres unmarked) [Example 193, 3-cyclopentyl-N-[9-(4-nitrophenyl)-4-oxo-3-(trifluoromethyl)-2,5,7-triazatricyclo[6.4.0.0^2,6]dodeca-1(12),6,8,10-tetraen-3-yl]propanamide]: the 50% inhibitory concentration (IC50) was 1.56 µM.

Turning to `O=C(CCC1CCCC1)NC1(C(F)(F)F)C(=O)Nc2nc3c(F)c(F)ccc3n21` (centres unmarked) [Example 82, 3-cyclopentyl-N-[9,10-difluoro-4-oxo-3-(trifluoromethyl)-2,5,7-triazatricyclo[6.4.0.0^2,6]-dodeca-1(12),6,8,10-tetraen-3-yl]propanamide], the 50% inhibitory concentration (IC50) turned out to be 1.4 µM.

Take `COCCNc1cccc(C(=O)NC2(C(F)(F)F)C(=O)Nc3nc4cc(C)c(C)cc4n32)n1` (single isomer, unassigned) [Example 220b, N-[10,11-dimethyl-4-oxo-3-(trifluoromethyl)-2,5,7-triazatricyclo[6.4.0.0^2,6]dodeca-1(12),6,8,10-tetraen-3-yl]-6-[(2-methoxyethyl)amino]pyridine-2-carboxamide]: the half-inhibitory concentration (IC50) was found to be 4 µM.

With `O=C(CCC1CCCC1)NC1(C(F)(F)F)C(=O)Nc2nc3c(-c4ccccc4O)cccc3n21` (centres unmarked) [Example 198, 3-cyclopentyl-N-[9-(2-hydroxyphenyl)-4-oxo-3-(trifluoromethyl)-2,5,7-triazatricyclo[6.4.0.0^2,6]dodeca-1(12),6,8,10-tetraen-3-yl]propanamide], the half-maximal inhibitory concentration (IC50) was determined as 1.97 µM.

On to `O=C(NC1(C(F)(F)F)C(=O)Nc2nc3cc(Cl)c(Cl)cc3n21)C1CC2(CNC2)C1` (centres unmarked) [Example 40, N-[10,11-dichloro-4-oxo-3-(trifluoromethyl)-2,5,7-triazatricyclo[6.4.0.0^2,6]dodeca-1(12),6,8,10-tetraen-3-yl]-2-azaspiro[3.3]heptane-6-carboxamide], for which the half-maximal inhibitory concentration (IC50) is 3.3 µM.

Regarding `O=C(CCC1CCCC1)NC1(C(F)(F)F)C(=O)Nc2nc3c(-c4nnn[nH]4)cccc3n21` (centres unmarked) [Example 199, 3-cyclopentyl-N-[4-oxo-9-(1H-1,2,3,4-tetrazol-5-yl)-3-(trifluoromethyl)-2,5,7-triazatricyclo[6.4.0.0^2,6]dodeca-1(12),6,8,10-tetraen-3-yl]propanamide], the IC50 is 0.92 µM.

Take `COCCNc1cccc(C(=O)NC2(C(F)(F)F)C(=O)Nc3nc4cc(C)c(C)cc4n32)n1` (centres unmarked) [Example 111, N-[10,11-dimethyl-4-oxo-3-(trifluoromethyl)-2,5,7-triazatricyclo[6.4.0.0^2,6]dodeca-1(8),6,9,11-tetraen-3-yl]-6-[(2-methoxyethyl)amino]pyridine-2-carboxamide]: the IC50 was 1.62 µM.

For `Cc1cc2nc3n(c2cc1C)C(NC(=O)CCc1c(Cl)cccc1Cl)(C(F)(F)F)C(=O)N3` (centres unmarked) [Example 29, 3-(2,6-dichlorophenyl)-N-[10,11-dimethyl-4-oxo-3-(trifluoromethyl)-2,5,7-triaza-tricyclo[6.4.0.0^2,6]dodeca-1(8),6,9,11-tetraen-3-yl]propanamide], the IC50 worked out at 5.4 µM.

In the case of `COc1cccc(-c2cccc3c2nc2n3C(NC(=O)CCC3CCCC3)(C(F)(F)F)C(=O)N2)c1` (centres unmarked) [Example 189, 3-cyclopentyl-N-[9-(3-methoxyphenyl)-4-oxo-3-(trifluoromethyl)-2,5,7-triazatricyclo[6.4.0.0^2,6]dodeca-1(12),6,8,10-tetraen-3-yl]propanamide], the IC50 came out at 0.95 µM.

Regarding `Cc1cc2nc3n(c2cc1C)C(NC(=O)CC1CCCCC1)(C(F)(F)F)C(=O)N3` (centres unmarked) [Example 20, 2-cyclohexyl-N-[10,11-dimethyl-4-oxo-3-(trifluoromethyl)-2,5,7-triazatricyclo-[6.4.0.0^2,6]dodeca-1(8),6,9,11-tetraen-3-yl]acetamide], the IC50 was 1.7 µM.

Regarding `Cc1cccc2c1nc1n2C(NC(=O)CCC2CCCC2)(C(F)(F)F)C(=O)N1` (centres unmarked) [Example 81, 3-cyclopentyl-N-[9-methyl-4-oxo-3-(trifluoromethyl)-2,5,7-triazatricyclo[6.4.0.0^2,6]dodeca-1(12),6,8,10-tetraen-3-yl]propanamide], the half-inhibitory concentration (IC50) was 5.6 µM.

Take `O=C(CCN1CCOCC1)NC1(C(F)(F)F)C(=O)Nc2nc3cc(Cl)c(Cl)cc3n21` (centres unmarked) [Example 61, N-[10,11-dichloro-4-oxo-3-(trifluoromethyl)-2,5,7-triazatricyclo[6.4.0.0^2,6]dodeca-1(12),6,8,10-tetraen-3-yl]-3-(morpholin-4-yl)propanamide]: the IC50 was 2.9 µM.

In the case of `Cc1cc2nc3n(c2cc1C)C(NC(=O)c1ccc(-c2ccccc2)cc1)(C(F)(F)F)C(=O)N3` (centres unmarked) [Example 18, N-[10,11-dimethyl-4-oxo-3-(trifluoromethyl)-2,5,7-triazatricyclo[6.4.0.0^2,6]dodeca-1(8),6,9,11-tetraen-3-yl]-4-phenylbenzamide], the half-inhibitory concentration (IC50) amounted to 2 µM.

On to `O=C(NC1(C(F)(F)F)C(=O)Nc2nc3cc(Cl)c(Cl)cc3n21)C1CNC1` (centres unmarked) [Example 47, N-[10,11-dichloro-4-oxo-3-(trifluoromethyl)-2,5,7-triazatricyclo[6.4.0.0^2,6]dodeca-1(12),6,8,10-tetraen-3-yl]azetidine-3-carboxamide], for which the IC50 came out at 3.9 µM.

Consider `O=C(NC1(C(F)(F)F)C(=O)Nc2nc3cc(Cl)c(Cl)cc3n21)c1cccc(OCC(F)(F)F)n1` (centres unmarked) [Example 64, N-[10,11-dichloro-4-oxo-3-(trifluoromethyl)-2,5,7-triazatricyclo[6.4.0.0^2,6]dodeca-1(12),6,8,10-tetraen-3-yl]-6-(2,2,2-trifluoroethoxy)pyridine-2-carboxamide], for which the IC50 came to 1.3 µM.

As for `O=C(CCC1CCCC1)NC1(C(F)(F)F)C(=O)Nc2nc3c(C(=O)O)cccc3n21` (single isomer, unassigned) [Example 231b, 3-(3-cyclopentylpropanamido)-4-oxo-3-(trifluoromethyl)-2,5,7-triazatricyclo[6.4.0.0^2,6]dodeca-1(12),6,8,10-tetraene-9-carboxylic acid], the half-maximal inhibitory concentration (IC50) was 0.84 µM.

`Cc1cc2nc3n(c2cc1C)C(NC(=O)c1ccccc1)(C(F)(F)F)C(=O)N3` (centres unmarked) [Example 14, N-[10,11-dimethyl-4-oxo-3-(trifluoromethyl)-2,5,7-triazatricyclo[6.4.0.0^2,6]dodeca-1(8),6,9,11-tetraen-3-yl]benzamide]: the IC50 amounted to 3.5 µM.

`O=C(NC1(C(F)(F)F)C(=O)Nc2nc3cc(Cl)c(Cl)cc3n21)[C@@H]1CCN(S(=O)(=O)C2CCCC2)C1` (stereo partly drawn) [Example 51, (3R)-1-(cyclopentanesulfonyl)-N-[10,11-dichloro-4-oxo-3-(trifluoromethyl)-2,5,7-triaza-tricyclo[6.4.0.0^2,6]dodeca-1(12),6,8,10-tetraen-3-yl]pyrrolidine-3-carboxamide]: the IC50 stood at 1.2 µM.

On to `O=C(NC1(C(F)(F)F)C(=O)Nc2nc3cc(Cl)c(Cl)cc3n21)C1CCNC1` (mixture of isomers) [Example 42, N-[10,11-dichloro-4-oxo-3-(trifluoromethyl)-2,5,7-triazatricyclo-[6.4.0.0^2,6]dodeca-1(12),6,8,10-tetraen-3-yl]pyrrolidine-3-carboxamide], for which the IC50 worked out at 2 µM.

Consider `Cc1cc2nc3n(c2cc1C)C(NC(=O)c1ccc(Cl)nc1)(C(F)(F)F)C(=O)N3` (centres unmarked) [Example 28, 6-chloro-N-[10,11-dimethyl-4-oxo-3-(trifluoromethyl)-2,5,7-triazatricyclo[6.4.0.0^2,6]-dodeca-1(12),6,8,10-tetraen-3-yl]pyridine-3-carboxamide], for which the IC50 is 3.7 µM.
